# Source: patent publication US20020147136A1, “Compounds for targeting endothelial cells, compositions containing the same and methods for their use” (priority 2000, published 2002)
# Residues, ends and D or L forms follow the SMILES beside them.
# What was measured:
# [1] = tested on: Human aortic endothelial cells (HAEC); experiment: Free TKPPR peptide inhibition of TKPPR-conjugated bead binding to HAEC; format: cell-based
# Protocol: HAEC were seeded into each well of an 8-well chamber slide (Collagen I Cellware, Becton Dickinson) and allowed to achieve confluence at 37° C. Solutions containing both TKPPR-beads (final concentration 4.9×10^6/mL) and green control beads (final concentration 4.9×10^6/mL) were prepared in D-PBS containing protease inhibitor cocktail (final dilution 1:50) and 0, 10, 25, 50, 100, 200, or 500 μM free TKPPR peptide. 0.25 mL of each microsphere solution was added to a well in the drained chamber slide and incubated at RT for 15 min. Two wells received the bead solution (mixed unconjugated and TKPPR beads as indicated above) lacking free competing TKPPR peptide. The slide was then washed three times with 0.5 mL D-PBS containing 0.1% Tween 20, fixed with methanol for 1 min and mounted. The three images for each level of TKPPR competition and the six images of the control were averaged and the % inhibition of binding was calculated using the following equation:
# % Inhibition=100×(Control Density−Competition Density)/Control Density
# A total of eleven 8-well slides were evaluated for competitive TKPPR-bead binding to HAEC on 7 different days.
# HAEC = experiment: TKPPR-bead binding to endothelial cells under flow; format: cell-based, human; conditions: flow 1.91 mL/min, 37° C.
# Protocol: Circular 40 mm diameter glass coverslips (Bioptechs, Cat No. 40-1313-0319) were first derivative by dipping in 3-aminopropyltriethoxysilane (Pierce, Cat No. 80370ZZ), 20% in acetone (HPLC grade, Sigma Aldrich Cat No. 27,072-5), rinsed in acetone, and air-dried. After autoclaving, the derivatized coverslips were placed into 60 mm round, sterile culture dishes, one coverslip per dish. Five mL of a Collagen I solution (Becton Dickinson, Cat No. 40236), 41.6 μg/mL in 20 mM acetic acid (adjusted to pH 6.7 with NaOH), was added to each coverslip-containing dish. After 15 min, 0.25 mL of 11.5 mg/mL bis(sulfosuccinimidyl) suberate (Pierce, Cat No. 21580ZZ) was added to each dish and mixed in by swirling. After a 105-minute incubation, the dishes were drained and 5 mL of sterile TBS (20 mM Tris-HCl, pH 7.5, 140 mM NaCl) was added to each dish. […]
# Coverslips containing confluent HAEC were mounted into a Bioptechs FCS2 parallel plate flow cell mounted on an Olympus IMT-2 inverted microscope. […] Wall shear stress T, in dynes/cm^2, was calculated using the equation (Lawrence et al., Blood 75:227-237, 1990): [formula]
# Bead binding of equal numbers of red fluorescent beads conjugated with TKPPR and green fluorescent beads conjugated with glycine was monitored after increasing lengths of perfusion and variable lengths of subsequent washing with the same solution lacking microspheres.
smiles,measurement,setting,value
"CC(O)C(N)C(=O)NC(CCCCN)C(=O)N1CCCC1C(=O)N1CCCC1C(=O)NC(CCCNC(=N)N)C(=O)O [TKPPR, L-Arginine, L-threonyl-L-lysyl-L-prolyl-L-prolyl] (H-TKPPR-OH; configuration not given here)",Average (n = 11) % Inhibition of TKPPR-bead binding,[1]; free TKPPR 10 μM,30.8%
same,Average (n = 11) % Inhibition of TKPPR-bead binding,[1]; free TKPPR 25 μM,50.7%
same,Average (n = 11) % Inhibition of TKPPR-bead binding,[1]; free TKPPR 50 μM,50.5%
same,Average (n = 11) % Inhibition of TKPPR-bead binding,[1]; free TKPPR 100 μM,62.0%
same,Average (n = 11) % Inhibition of TKPPR-bead binding,[1]; free TKPPR 200 μM,72.2%
same,Average (n = 11) % Inhibition of TKPPR-bead binding,[1]; free TKPPR 500 μM,70.6%
same,Beads bound at 1.53 dynes/cm^2,HAEC,86
